Source: patent US10941126B2, “Bridged bicycloalkyl-substituted aminothiazoles and their methods of use” (Temple University—Of The Commonwealth System of Higher …, priority 2017, dated 2021)

Legend:
GSK-3β = biological target: T1, GSK-3β (Homo sapiens, UniProt P49841); experiment: 250 kinome screening at 1 μM; assay type: biochemical
T1 construct: Nanosyn (contract assay)
Method: (§1) HDAC inhibitory activity assays were performed using FLUOR DE LYS® HDAC fluorometric activity assay kit from Enzo following the manufacturer's instructions. GloMax®-Multi Detection System (Promega) was used to read the fluorescence signals. Histone methyltransferase and demethylase enzymatic assays were performed by BPS Bioscience at 10 μM in duplicates. Kinase enzymatic assays were performed by Nanosyn using microfluidic technology. 250 kinome screening was done in duplicates using MC180295 at 1 μM. IC50 curves against 10 CDKs were created for MC180295. The human kinome tree was annotated using the online Kinome Render software (Chartier, M., Chénard, T., Barker, J., and Najmanovich, R. (2013). PeerJ 1, e126). Isotope kinase assay was performed using previously described methods (Garriga, J., Peng, J., Parreño, M., Price, D. H., Henderson, E. E., and Graña, X. (1998). Oncogene 17, 3093-3102) using recombinant active full-length CDK9/CyclinT1 (Millipore, 14-685) and SMARCA4 (Abcam, ab82237) in the presence or absence of CDK9 inhibitors.

GSK-3a = biological target: T2, GSK-3a (Homo sapiens, UniProt P49840); experiment: 250 kinome screening at 1 μM; assay type: biochemical
T2 construct: Nanosyn (contract assay)
Method: as §1

SW48 and HCT116 cells = experiment: qPCR for ERV expression; assay type: cell-based, human; conditions: Four-day treatment
Method: Total RNA was extracted using TRIzol reagent (Invitrogen) following the manufacturer's protocol and RNA concentrations were measured using Nanodrop. cDNAs were synthesized using High Capacity cDNA Reverse Transcription Kit (ThermoFisher) and qPCR was performed using either ready-made TaqMan® assays or SYBR-green using custom-designed primers. All the data were analyzed using Applied Biosystems software (StepOne™ Software V2.3). For all experiments, relative expression levels of the target genes were determined by calculating the 2^−ΔΔCt values. All experiments were performed at least in triplicates. Either GAPDH or 18S rRNA was used as an internal normalization control for protein coding genes. RPLPO was used as an internal normalization control for ERVs. All SYBR-green primers were described previously and are listed in Table 1 along with TaqMan® probes used.

SMARCA4 = experiment: Phosphoproteomics (LC-MS/MS) in YB5 cells; assay type: cell-based, human; conditions: 500 nM, 4 hr
Method: YB5 cells were treated with or without 500 nM MC180295 for 4 hours. Nuclear fraction was enriched using a hypotonic lysis buffer as previously described (Boden, G., Homko, C., Barrero, C. A., Stein, T. P., Chen, X., Cheung, P., Fecchio, C., Koller, S., and Merali, S. (2015), Sci Transl Med 7, 304-307). Proteins from the nuclear fraction were extracted with M-PER Mammalian Protein Extraction Reagent (Thermo Scientific, #78501) in the presence of protease and phosphatase inhibitors (Halt™ Protease Inhibitor Cocktail, #87785 and Halt™ Phosphatase Inhibitor Single-Use Cocktail, #78428). Phosphoproteins were enriched from 500 μg of nuclear extracted proteins, using a phosphoprotein purification kit (QIAGEN, #37101). Both samples were processed using in-StageTip method for digestion and peptide purification before performing LC-MS/MS proteomics analysis. The mass spectrometry proteomics data have been deposited to the ProteomeXchange Consortium via the PRIDE (Vizcaino, J. A., Csordas, A., del-Toro, N., Dianes, J. A., Griss, J., Lavidas, I., Mayer, G., Perez-Riverol, Y., Reisinger, F., Tement, T., et al. (2016). 2016 update of the PRIDE database and its related tools. Nucleic Acids Res 44, D447-456) partner repository with the dataset identifier PXD008040. […]

panel of 250 kinases = experiment: 250 kinome screening at 1 μM; assay type: biochemical, human
Method: as §1

[1] = test system: cancer cell lines and normal IMR90 cells; experiment: Anti-proliferation assay (trypan blue exclusion); assay type: cell-based, human; conditions: four days after one-time exposure
Method: Cells were seeded in 96-well plates at 40% confluency in triplicates. Fresh medium was changed the next day and drugs were added directly. After mixing thoroughly, plates were cultured in a 37° C. incubator for two more days. Drug-free fresh medium was changed the fourth day. The cells were collected on day 5 by trypsin, suspended in medium, mixed with trypan blue (1:1 ratio), and counted using LUNA II automated cell counter. Each sample was counted at least three times and the average numbers were used for the analysis. Each treatment condition was performed at least in triplicates.

HL60 cell line = experiment: HL60 cell differentiation (CD11b); assay type: cell-based, human; conditions: four-day single-dose treatment
Method: For drug screening and dose response validations, GFP positive cells were detected by Millipore Guava flow cytometer (EMD, Millipore). Cell cycle analysis was performed using BD FACSCalibur™ by propidium iodide staining four days after drug treatment. Sub-G1 population percentage was also included to measure apoptotic cell proportion. Data were analyzed using FlowJo software version 10.2. For the cell differentiation analysis, cells were washed and stained with propidium iodide (PI), CD11 b (BD Biosciences, #562793) and the isotype control IgG (BD Biosciences, #555748). Flow cytometry analysis was performed on a Millipore Guava flow cytometer (EMD, Millipore). For the ID8 in vivo experiments, ascites was drained from 5-10 mice per group and incubated in ACK buffer (Thermo Fisher) to lyse red blood cells for 10 minutes, then washed. Ascites from each mouse was individually lysed and prepared for flow cytometry. Mononuclear cells collected were cultured for 4 hours in RPMI with 5% Fetal Bovine Serum and in the presence of Cell Stimulation Cocktail (plus protein transport inhibitors; eBioscience). […] Flow cytometry acquisition was performed on an LSRII cytometer (BD Biosciences) and data were analyzed using FlowJo software version 10.2.

YB5 cells = experiment: GFP reactivation in YB5 cells (flow cytometry); assay type: cell-based, human; conditions: YB5 cells, one-time 4-day treatment

T2 sequence (P49840 whole entry): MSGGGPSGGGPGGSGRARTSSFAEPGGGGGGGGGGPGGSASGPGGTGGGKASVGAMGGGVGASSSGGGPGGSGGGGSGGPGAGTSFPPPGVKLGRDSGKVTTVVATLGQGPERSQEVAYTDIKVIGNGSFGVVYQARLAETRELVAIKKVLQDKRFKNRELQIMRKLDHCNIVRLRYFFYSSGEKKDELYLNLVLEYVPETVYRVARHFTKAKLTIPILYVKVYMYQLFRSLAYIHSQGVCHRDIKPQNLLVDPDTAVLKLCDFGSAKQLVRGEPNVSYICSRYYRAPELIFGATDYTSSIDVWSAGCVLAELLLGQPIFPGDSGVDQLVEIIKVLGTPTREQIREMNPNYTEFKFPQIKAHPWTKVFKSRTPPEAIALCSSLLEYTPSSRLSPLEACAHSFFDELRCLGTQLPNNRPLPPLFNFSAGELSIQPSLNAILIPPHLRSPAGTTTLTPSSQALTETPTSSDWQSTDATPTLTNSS
T1 sequence (P49841 whole entry): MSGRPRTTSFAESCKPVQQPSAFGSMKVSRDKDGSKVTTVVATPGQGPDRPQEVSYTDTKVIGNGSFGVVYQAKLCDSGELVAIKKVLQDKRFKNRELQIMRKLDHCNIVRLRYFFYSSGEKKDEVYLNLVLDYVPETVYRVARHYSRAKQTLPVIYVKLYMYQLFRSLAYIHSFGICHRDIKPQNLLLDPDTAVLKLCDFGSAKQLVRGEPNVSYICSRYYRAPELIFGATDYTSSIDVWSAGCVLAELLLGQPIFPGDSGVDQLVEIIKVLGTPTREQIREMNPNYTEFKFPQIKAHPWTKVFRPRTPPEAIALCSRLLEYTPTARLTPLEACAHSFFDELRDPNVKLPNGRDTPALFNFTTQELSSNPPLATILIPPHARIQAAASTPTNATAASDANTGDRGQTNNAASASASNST

Nc1nc(N[C@H]2CC3CCC2C3)sc1C(=O)c1ccccc1[N+](=O)[O-] (some centres unmarked) [MC180295]
inhibition (GSK-3β): inhibited
inhibition (GSK-3a): inhibited
ERV expression (SW48 and HCT116 cells): activated the expression of several ERVs
phosphorylation of SMARCA4 serine/threonine residues (SMARCA4): dephosphorylated
selectivity against a panel of 250 kinases (panel of 250 kinases): highly selective against CDKs
reduction of proliferation, cancer cells vs normal cells (IMR90) [1]: more effective in reducing proliferation of cancer cells than normal control cells
differentiation marker CD11b (HL60 cell line): significant induction
concentration at which active (GFP re-expression) (YB5 cells): 50 nM
